Activity calls are given as the source filed them. No cut-off for these calls is given here.
How the values were obtained:
Entamoeba histolytica [1] = test: Ratio of metronidazole IC50 to compound IC50 for Entamoeba histolytica HM-1:IMSS trophozoites; format: functional
Entamoeba histolytica [2] = test: Antiprotozoal activity against Entamoeba histolytica HM-1:IMSS trophozoites after 72 hrs by microdilution method; format: functional, organism-based
Plasmodium falciparum [3] = test: Antimicrobial activity against erythrocytic stage of chloroquine-resistant Plasmodium falciparum W2 infected in human erythrocytes assessed as [3H]hypoxanthine incorporation at 1 ug/ml after 24 hrs by beta-radiation counting analysis; format: functional
[4] = Cytotoxicity against BALB/c mouse splenocytes assessed as [3H]-thymidine incorporation after 24 hrs by beta-radiation counting analysis relative to control; format: cell-based; conditions: Splenocyte
[5] = Selectivity index, ratio of IC50 for BALB/c mouse splenocytes to IC50 for Entamoeba histolytica HM-1:IMSS trophozoites
[6] = Cytotoxicity against human erythrocytes assessed as hemolysis at 25 uM after 1 hr by spectrophotometry; format: cell-based; conditions: erythrocyte
Plasmodium falciparum [7] = test: Antimicrobial activity against erythrocytic stage of chloroquine-resistant Plasmodium falciparum W2 infected in human erythrocytes assessed as [3H]hypoxanthine incorporation after 24 hrs by beta-radiation counting analysis; format: functional, organism-based
[8] = Inhibition of beta-hematin formation at 2.5 mM after 24 hrs by spectrophotometry; format: physicochemical; conditions: 2500 µM
Plasmodium falciparum [9] = test: Antimicrobial activity against ring stage chloroquine-resistant Plasmodium falciparum W2 infected in human erythrocytes assessed as inhibition of schizont stage parasite growth at 0.5 to 1 uM after 48 hrs by light microscopy; format: functional, organism-based
[10] = Plasmodium falciparum, W2, read-out: IC50

Compound	IC50 (Entamoeba histolytica [2]) [µM]	inhibition at 1 µg/mL (Plasmodium falciparum [3]) [%]	IC50 [4] [µM]	IC50 (Plasmodium falciparum [7]; [10]) [µM]	further results
COc1cc(/C=N/NC(=O)CCN2CCN(c3ccnc4cc(Cl)ccc34)CC2)ccc1OC(C)=O	0.13	0	15.8		Ratio IC50 (Entamoeba histolytica [1]): 10; Ratio IC50 [5]: 121
CCOc1ccc(/C=N/NC(=O)CCN2CCN(c3ccnc4cc(Cl)ccc34)CC2)cc1	12	14.9			
CN(C)c1ccc(/C=N/NC(=O)CCN2CCN(c3ccnc4cc(Cl)ccc34)CC2)cc1	15.2	98	> 100	1.3	Activity [6]: Non-toxic; inhibition (INH) [8]: 94.2%
O=C(CCN1CCN(c2ccnc3cc(Cl)ccc23)CC1)N/N=C/c1ccc(O)cc1	> 100	80.6			
NNC(=O)CCN1CCN(c2ccnc3cc(Cl)ccc23)CC1		74.1	> 100	41.7	inhibition (INH) [8]: 21.7%
O=C(CCN1CCN(c2ccnc3cc(Cl)ccc23)CC1)N/N=C/c1ccc2c(c1)OCO2	> 100	27.8			
O=C(CCN1CCN(c2ccnc3cc(Cl)ccc23)CC1)N/N=C/c1ccc([N+](=O)[O-])cc1	0.95	38.4	12.1		
O=C(CCN1CCN(c2ccnc3cc(Cl)ccc23)CC1)N/N=C/c1cccc([N+](=O)[O-])c1	12.6	19.9			
COc1cc(/C=N/NC(=O)CCN2CCN(c3ccnc4cc(Cl)ccc34)CC2)cc(Br)c1O	20.5	41.5			IC50 (Plasmodium falciparum [7]): Not Active
CCOC(=O)COc1ccc(/C=N/NC(=O)CCN2CCN(c3ccnc4cc(Cl)ccc34)CC2)cc1OC	> 100	71.7			
O=C(CCN1CCN(c2ccnc3cc(Cl)ccc23)CC1)N/N=C/c1c[nH]c2ccccc12	9.6	81.5	5.7	3.3	Activity [6]: Non-toxic; inhibition (INH) [8]: 43.3%
CCOC(OCC)c1ccc(/C=N/NC(=O)CCN2CCN(c3ccnc4cc(Cl)ccc34)CC2)cc1	> 100	71.7			
CC(C)c1ccc(/C=N/NC(=O)CCN2CCN(c3ccnc4cc(Cl)ccc34)CC2)cc1	17.1	97.5	7.9	1.7	Activity [6]: Non-toxic; inhibition (INH) [8]: 94%
COc1cc(/C=N/NC(=O)CCN2CCN(c3ccnc4cc(Cl)ccc34)CC2)ccc1O	21.3	99.1	9.4	2.1	Activity [6]: Non-toxic; inhibition (INH) [8]: 50.7%
COc1ccc(OC)c(/C=N/NC(=O)CCN2CCN(c3ccnc4cc(Cl)ccc34)CC2)c1	8.2	37.4			
O=C(CCN1CCN(c2ccnc3cc(Cl)ccc23)CC1)N/N=C/c1ccccn1	> 100	0			
O=C(CCN1CCN(c2ccnc3cc(Cl)ccc23)CC1)N/N=C/c1cccc(Cl)c1	7.7	97.3	> 100		
COc1cc(/C=N/NC(=O)CCN2CCN(c3ccnc4cc(Cl)ccc34)CC2)cc(OC)c1OC	12.4	47.4			

Compound	IC50 (Entamoeba histolytica [2]) [µM]	inhibition at 1 µg/mL (Plasmodium falciparum [3]) [%]	IC50 [4] [µM]	IC50 (Plasmodium falciparum [7]; [10]) [µM]	further results
CCN(CC)CCCC(C)Nc1ccnc2cc(Cl)ccc12 (configuration not stated) [CHLOROQUINE]					inhibition (INH) [8]: 87.1%
O=C(CCN1CCN(c2ccnc3cc(Cl)ccc23)CC1)N/N=C/c1ccccc1	6.6	93.3	0.3	0.2	
CCc1ccc(/C=N/NC(=O)CCN2CCN(c3ccnc4cc(Cl)ccc34)CC2)cc1	11.1	97.8			
COc1cc(/C=N/NC(=O)CCN2CCN(c3ccnc4cc(Cl)ccc34)CC2)c(Br)c(OC)c1OC	3.7	42.9	9.6		IC50 (Plasmodium falciparum [7]): Not Active
Cc1ccc(/C=N/NC(=O)CCN2CCN(c3ccnc4cc(Cl)ccc34)CC2)cc1	8.1	81.4			
O=C(CCN1CCN(c2ccnc3cc(Cl)ccc23)CC1)N/N=C/c1ccccc1O	25.6	98.9	11.5	0.33	Activity [6]: Non-toxic; Activity (Plasmodium falciparum [9]): Active; inhibition (INH) [8]: 83.2%
O=C(CCN1CCN(c2ccnc3cc(Cl)ccc23)CC1)N/N=C/c1ccccc1C(F)(F)F	8.1	59.6			
O=C(CCN1CCN(c2ccnc3cc(Cl)ccc23)CC1)N/N=C/c1ccccc1Cl	12.3	97.9	10.8	0.78	Activity [6]: Non-toxic; inhibition (INH) [8]: 87.3%
COc1ccc(/C=N/NC(=O)CCN2CCN(c3ccnc4cc(Cl)ccc34)CC2)cc1	19.7	43			
O[C@@H](c1cc(C(F)(F)F)nc2c(C(F)(F)F)cccc12)[C@H]1CCCCN1 (relative stereo) [(S,R)-MEFLOQUINE]			9.5	0.04	
O=C(CCN1CCN(c2ccnc3cc(Cl)ccc23)CC1)N/N=C/c1ccccc1[N+](=O)[O-]	11.3	73.1			
O=C(CCN1CCN(c2ccnc3cc(Cl)ccc23)CC1)N/N=C/c1cc(Br)c(O)c(Br)c1	6.6	28			IC50 (Plasmodium falciparum [7]): Not Active
COc1cc(/C=N/NC(=O)CCN2CCN(c3ccnc4cc(Cl)ccc34)CC2)ccc1OC(C)C	15.5	98.6	8.8	4.5	Activity [6]: Non-toxic; inhibition (INH) [8]: 15.7%
Cc1ncc([N+](=O)[O-])n1CCO [METRONIDAZOLE]	1.5		5.4		
CCOc1ccccc1/C=N/NC(=O)CCN1CCN(c2ccnc3cc(Cl)ccc23)CC1	> 100	28.1			
O=C(CCN1CCN(c2ccnc3cc(Cl)ccc23)CC1)N/N=C/c1ccc(Cl)cc1	87.2	98.4	0.2	1.4	
CC(C)Oc1ccc(/C=N/NC(=O)CCN2CCN(c3ccnc4cc(Cl)ccc34)CC2)cc1	5.3	98	3.6	0.8	
COc1ccc(/C=N/NC(=O)CCN2CCN(c3ccnc4cc(Cl)ccc34)CC2)cc1OC	11.6	98.4			
